PubChem BioAssay AID1963833 (Molecular Pharmacology Branch, DTP, NCI, 2024)

Tested on: 883617-216-R-J1-PDC complex spheroid viability
Test: Anticancer human tumor 883617-216-R-J1-PDC patient-derived bladder carcinoma cell line growth inhibition [POLQ]
Conditions: for IC50: curve of first compound; for viability, T/C: stronger effect = lower value
Protocol: Multicellular complex tumor spheroid response to Polymerase (POL) inhibitors (novobiocin, ART-558, RP6685) in combination with a variety of drugs and investigational agents in selected tumor cell lines
The POL inhibitors (novobiocin, ART-558, and RP6685) were evaluated both individually and in combination with standard of care and investigational anticancer small molecules within a complex spheroid model of solid tumors. . Complex spheroids include a stromal component modeled by human endothelial cells (HUVEC) and fibroblasts modeled by human mesenchymal stem cells (MSCs). The concentration ranges selected for each drug and investigational agent were based upon clinically achievable concentrations if the clinical Cmax of the agent was known.
Compounds. The drugs and investigational agents: novobiocin (NSC847541), ART-558 (NSC835418), RP-6685 (NSC848927), peposertib (NSC802822), ceralasertib (NSC780249), elimusertib (NSC800525), camonsertib (NSC841442), AZD-1390 (NSC803789), olaparib (NSC753686), talazoparib (NSC767125), rucaparib (NSC756644), sotorasib (NSC818433), MRTX-1133 (NSC836407), SN-38 (NSC673596), topotecan (NSC609699), epotoside (NSC141540), doxorubicin (NSC123127), gemcitabine (NSC613327), 5-fluorouracil (NSC19893), paclitaxel (NSC125973), vemurafenib (NSC761431), MSA-2 (NSC828583), SN-011 (NSC837082), adavosertib (NSC754352), prexasertib (NSC758257), carboplatin (NSC241240) and oxaliplatin (NSC266046), were obtained from the National Cancer Institute (NCI) Developmental Therapeutics Program Chemical Repository (21). The FDA-approved anticancer drug set is available from the Developmental Therapeutics Program at https://dtp.cancer.gov/organization/dscb/obtaining/. […] The stock solutions were prepared in dimethyl sulfoxide (DMSO, Sigma-Aldrich, St. Louis, MO, cat. D2650), except for the platinum compounds which were prepared in saline (Quality Biological, Gaithersburg, MD, cat. 114-055-101), at 800-fold the tested concentration and stored at -70 degrees C prior to their use. All drugs and investigational agents were tested over a range starting from a high concentration at or near the clinical Cmax and decreasing in half-log increments. If the clinical Cmax for an agent had not been determined, the highest concentration tested was 10 microM, except for SN-38, which was tested at a high concentration of 1 microM.
Cell Culture. All cells were maintained in an incubator at 37 degrees C and 5% CO2 with 95% humidity. The PDC lines were cultured according to standard operating procedures established by the NCI PDMR (https://pdmr.cancer.gov). Table 3 of the manuscript, lists the cell lines along with the number of the three cell types plated to form the mct-spheroids and media for tumor cell growth. After thawing, all PDC lines, except 997537-175-T-J1-PDC and 415267-285-R-J2-PDC, were cultured in Matrigel-coated flasks prepared with a working solution of 1X Ham's F-12 nutrient mix, without supplementation (Thermo Fisher Scientific, cat. 11765054), 100 U/mL penicillin-streptomycin (Thermo Fisher Scientific, cat. 15140122), and 2.5% Matrigel (Corning Inc., Corning, NY, cat. 354248) for the first three passages. The two PDC lines 997537-175-T-J1-PDC and 415267-285-R-J2-PDC were cultured on uncoated flasks. The 857933-349-R-J2-PDC line was cultured in 6C/Colon 1B media containing advanced DMEM/F-12 (Thermo Fisher Scientific, cat. 12634028), 10 mM HEPES (Thermo Fisher Scientific, cat. 15630080), 1X GlutaMAX supplement (Thermo Fisher Scientific, cat. 35050061), 0.1 mg/mL primocin (InvivoGen, San Diego, CA, cat. ant-pm-2), 10% defined fetal bovine serum, heat inactivated (HyClone Laboratories Inc., Logan, UT, cat. SH30070.03HI), 50% L-WRN conditioned media (ATCC, cat. CRL-3276), 1.25 mM N-Acetyl-L-cysteine (Sigma-Aldrich, cat. A9165), 10 mM nicotinamide (Sigma-Aldrich, cat. N0636), 1X B-27 supplement (Thermo Fisher Scientific, cat. 17504044), 1X N-2 supplement (Thermo Fisher Scientific, cat. […]

[1] = second compound 0.0316 µM, first compound 0.0316 µM
[2] = second compound 0.0316 µM, first compound 0.1 µM
[3] = second compound 0.1 µM, first compound 0.0316 µM
[4] = second compound 0.1 µM, first compound 0.1 µM
[5] = second compound 0.316 µM, first compound 0.0316 µM
[6] = second compound 0.316 µM, first compound 0.1 µM
[7] = second compound 1 µM, first compound 0.0316 µM
[8] = second compound 1 µM, first compound 0.1 µM
[9] = second compound 3.16 µM, first compound 0.0316 µM
[10] = second compound 3.16 µM, first compound 0.1 µM
[11] = second compound 10 µM, first compound 0.0316 µM
[12] = second compound 10 µM, first compound 0.1 µM
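Note: spheroids exposed to compounds for seven days before readout.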
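Throughout, for viability, T/C: 100% = DMSO vehicle control viability.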

`Cn1ncnc1[C@H]1c2n[nH]c(=O)c3cc(F)cc(c23)N[C@@H]1c1ccc(F)cc1` + COC1C(OC(N)=O)C(O)C(Oc2ccc3c(O)c(NC(=O)c4ccc(O)c(CC=C(C)C)c4)c(=O)oc3c2C)OC1(C)C showed an IC50 (second compound 0.0316 µM) greater than 0.1 µM, an IC50 (second compound 0.1 µM) greater than 0.1 µM and an IC50 (second compound 0.316 µM) greater than 0.1 µM. The IC50 (second compound 1 µM) was greater than 0.1 µM, the IC50 (second compound 3.16 µM) was greater than 0.1 µM and the IC50 (second compound 10 µM) was greater than 0.1 µM. For the same compound, the viability, T/C (second compound 0.0316 µM, first compound 0.000316 µM) was 103%, the viability, T/C (second compound 0.0316 µM, first compound 0.001 µM) was 93.1% and the viability, T/C (second compound 0.0316 µM, first compound 0.00316 µM) was 95.5%. The viability, T/C (second compound 0.0316 µM, first compound 0.01 µM) was 94.9%, the viability, T/C [1] was 72.8% and the viability, T/C [2] was 78.4%. It also gave a viability, T/C (second compound 0.1 µM, first compound 0.000316 µM) of 110%, a viability, T/C (second compound 0.1 µM, first compound 0.001 µM) of 95.9% and a viability, T/C (second compound 0.1 µM, first compound 0.00316 µM) of 108%. For the same compound, the viability, T/C (second compound 0.1 µM, first compound 0.01 µM) was 80.2%, the viability, T/C [3] was 75.8% and the viability, T/C [4] was 69.3%. For the same compound, the viability, T/C (second compound 0.316 µM, first compound 0.000316 µM) was 108%, the viability, T/C (second compound 0.316 µM, first compound 0.001 µM) was 99% and the viability, T/C (second compound 0.316 µM, first compound 0.00316 µM) was 89.9%. For the same compound, the viability, T/C (second compound 0.316 µM, first compound 0.01 µM) was 82.9%, the viability, T/C [5] was 67.5% and the viability, T/C [6] was 64%. The viability, T/C (second compound 1 µM, first compound 0.000316 µM) was 95.8%, the viability, T/C (second compound 1 µM, first compound 0.001 µM) was 104% and the viability, T/C (second compound 1 µM, first compound 0.00316 µM) was 101%. For the same compound, the viability, T/C (second compound 1 µM, first compound 0.01 µM) was 80.5%, the viability, T/C [7] was 83.2% and the viability, T/C [8] was 76.9%. It also gave a viability, T/C (second compound 3.16 µM, first compound 0.000316 µM) of 99.4%, a viability, T/C (second compound 3.16 µM, first compound 0.001 µM) of 102% and a viability, T/C (second compound 3.16 µM, first compound 0.00316 µM) of 101%. It also gave a viability, T/C (second compound 3.16 µM, first compound 0.01 µM) of 70.9%, a viability, T/C [9] of 82.5% and a viability, T/C [10] of 68%. It also gave a viability, T/C (second compound 10 µM, first compound 0.000316 µM) of 94.2%, a viability, T/C (second compound 10 µM, first compound 0.001 µM) of 97.9% and a viability, T/C (second compound 10 µM, first compound 0.00316 µM) of 97.7%. It also gave a viability, T/C (second compound 10 µM, first compound 0.01 µM) of 71.6%, a viability, T/C [11] of 79.5% and a viability, T/C [12] of 70.8%.
With `O=c1[nH]cc(F)c(=O)[nH]1` + COC1C(OC(N)=O)C(O)C(Oc2ccc3c(O)c(NC(=O)c4ccc(O)c(CC=C(C)C)c4)c(=O)oc3c2C)OC1(C)C the IC50 (second compound 0.0316 µM) was greater than 10 µM, the IC50 (second compound 0.1 µM) was greater than 10 µM and the IC50 (second compound 0.316 µM) was greater than 10 µM. It also gave an IC50 (second compound 1 µM) greater than 10 µM, an IC50 (second compound 3.16 µM) greater than 10 µM and an IC50 (second compound 10 µM) greater than 10 µM. It also gave a viability, T/C [1] of 106%, a viability, T/C [2] of 96.4% and a viability, T/C (second compound 0.0316 µM, first compound 0.316 µM) of 104%. The viability, T/C (second compound 0.0316 µM, first compound 1 µM) was 105%, the viability, T/C (second compound 0.0316 µM, first compound 3.16 µM) was 76.7% and the viability, T/C (second compound 0.0316 µM, first compound 10 µM) was 59.8%. For the same compound, the viability, T/C [3] was 103%, the viability, T/C [4] was 105% and the viability, T/C (second compound 0.1 µM, first compound 0.316 µM) was 99.4%. The viability, T/C (second compound 0.1 µM, first compound 1 µM) was 94.6%, the viability, T/C (second compound 0.1 µM, first compound 3.16 µM) was 70.9% and the viability, T/C (second compound 0.1 µM, first compound 10 µM) was 60.9%. The viability, T/C [5] was 88.2%, the viability, T/C [6] was 99.6% and the viability, T/C (second compound 0.316 µM, first compound 0.316 µM) was 92.2%. For the same compound, the viability, T/C (second compound 0.316 µM, first compound 1 µM) was 93%, the viability, T/C (second compound 0.316 µM, first compound 3.16 µM) was 84.4% and the viability, T/C (second compound 0.316 µM, first compound 10 µM) was 63.5%. The viability, T/C [7] was 104%, the viability, T/C [8] was 94.2% and the viability, T/C (second compound 1 µM, first compound 0.316 µM) was 117%. It also gave a viability, T/C (second compound 1 µM, first compound 1 µM) of 80.2%, a viability, T/C (second compound 1 µM, first compound 3.16 µM) of 78% and a viability, T/C (second compound 1 µM, first compound 10 µM) of 69%. The viability, T/C [9] was 112%, the viability, T/C [10] was 92.8% and the viability, T/C (second compound 3.16 µM, first compound 0.316 µM) was 95.5%. The viability, T/C (second compound 3.16 µM, first compound 1 µM) was 91.7%, the viability, T/C (second compound 3.16 µM, first compound 3.16 µM) was 84.9% and the viability, T/C (second compound 3.16 µM, first compound 10 µM) was 65.4%. For the same compound, the viability, T/C [11] was 95.2%, the viability, T/C [12] was 99.6% and the viability, T/C (second compound 10 µM, first compound 0.316 µM) was 99.7%. It also gave a viability, T/C (second compound 10 µM, first compound 1 µM) of 85.3%, a viability, T/C (second compound 10 µM, first compound 3.16 µM) of 81.4% and a viability, T/C (second compound 10 µM, first compound 10 µM) of 78.2%.
